Test results reported in patent US20240383856A1 (Zedira GmbH, priority 2021, published 2024).

Key:
[1] = logD by shake flask method (octanol / PBS pH 7.4, HPLC); type: physicochemical; settings: octanol / PBS pH 7.4, shake flask
Outline: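 Shake-flask partition of compound between octanol and phosphate-buffered saline at pH 7.4, with each phase quantified by HPLC to give LogD.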

[2] = molecular target: T1, recombinant human transglutaminase 2 (Homo sapiens, UniProt P21980); assay: Transglutaminase assay (DCC-assay): incorporation of dansylcadaverine into dimethylcasein; type: biochemical; settings: recombinant human TG2 10 nM; dansylcadaverine incorporation into dimethylcasein; read-out: IC50 TG2
T1 construct: purchased Zedira T022
T1 sequence (P21980 1-687): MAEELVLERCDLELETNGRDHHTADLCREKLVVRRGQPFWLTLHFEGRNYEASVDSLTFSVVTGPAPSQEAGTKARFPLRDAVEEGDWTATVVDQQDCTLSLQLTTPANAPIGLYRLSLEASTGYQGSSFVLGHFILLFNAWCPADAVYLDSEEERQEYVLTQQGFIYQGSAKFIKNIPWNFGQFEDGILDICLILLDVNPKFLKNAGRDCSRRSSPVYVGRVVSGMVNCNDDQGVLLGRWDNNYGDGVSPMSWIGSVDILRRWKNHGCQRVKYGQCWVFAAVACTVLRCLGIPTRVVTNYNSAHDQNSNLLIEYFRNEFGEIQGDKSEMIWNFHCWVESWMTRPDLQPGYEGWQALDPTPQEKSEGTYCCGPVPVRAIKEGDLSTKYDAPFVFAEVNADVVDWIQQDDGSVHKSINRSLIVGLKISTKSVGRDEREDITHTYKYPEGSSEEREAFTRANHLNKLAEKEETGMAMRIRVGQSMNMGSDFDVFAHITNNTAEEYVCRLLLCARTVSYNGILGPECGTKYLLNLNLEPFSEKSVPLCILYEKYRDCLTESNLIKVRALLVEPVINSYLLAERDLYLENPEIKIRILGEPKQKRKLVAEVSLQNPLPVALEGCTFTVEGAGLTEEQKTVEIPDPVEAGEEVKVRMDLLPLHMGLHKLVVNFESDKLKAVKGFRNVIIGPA
Outline: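 Recombinant human TG2 (10 nM final) incorporates dansylcadaverine into N,N-dimethylcasein. Reaction mix: 50 mM Tris-HCl, 10 mM CaCl2, 10 mM glutathione, 2.5% glycerol, 16.7 µM dansylcadaverine, 4 µM dimethylcasein, 200 mM NaCl, pH 8.0. Fluorescence (ex 330/em 500 nm) was followed 30 min at 37 °C; the 20–30 min slope, expressed as % of 2% DMSO control, gave IC50.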

[3] = Caco-2 permeability assay (CacoReady kit); type: in vitro ADME; settings: human, Caco-2, Caco-2 barrier, CacoReady kit; above 1×10^−6 cm/s classified as permeable
Outline: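 Read-out is the permeability coefficient Papp, obtained from transport across a Caco-2 barrier prepared from a ready-to-use kit following the manufacturer's instructions.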

Work on `CC(C)NC(=O)C(=O)CC[C@H](NC(=O)c1cc2ccccc2o1)C(=O)Nc1cccn(CC(=O)NC2C3CC4CC(C3)CC2C4)c1=O` (stereo partly drawn) [II-120, (S)-2-(benzofuran-2-carboxamido)-N6-isopropyl-N1-(1-(2-(2-adamantylamino)-2-oxoethyl)-2-oxo-1,2-dihydropyridin-3-yl)-5-oxohexanediamide] yielded a logD [1] of 3 to 5, an IC50 [2] of 40 to 400 nM and a Papp [3] of 1 to 10 ×10⁻⁶ cm/s.

For `CNC(=O)C(=O)CC[C@H](NC(=O)c1nc(Cl)sc1C)C(=O)Nc1cccn(CC(=O)NC2C3CC4CC(C3)CC2C4)c1=O` (stereo partly drawn) [II-31, (S)-2-(2-chloro-5-methylthiazole-4-carboxamido)-N1-(1-(2-(2-adamantylamino)-2-oxoethyl)-2-oxo-1,2-dihydropyridin-3-yl)-N6-methyl-5-oxohexanediamide], the logD [1] was 1 to 3, the IC50 [2] was 40 to 400 nM and the Papp [3] was 1 to 10 ×10⁻⁶ cm/s.

Molecule `CNC(=O)C(=O)CC[C@H](NC(=O)c1csc(Br)c1)C(=O)Nc1cccn(CC(=O)NC2C3CC4CC(C3)CC2C4)c1=O` (stereo partly drawn) [II-30, (S)-2-(5-bromothiophene-3-carboxamido)-N1-(1-(2-(2-adamantylamino)-2-oxoethyl)-2-oxo-1,2-dihydropyridin-3-yl)-N6-methyl-5-oxohexanediamide] has a logD [1] of 3 to 5, an IC50 [2] of under 40 nM and a Papp [3] of 1 to 10 ×10⁻⁶ cm/s.

`Cc1nc(C(F)(F)F)sc1C(=O)N[C@@H](CCC(=O)C(N)=O)C(=O)Nc1cccn(CC(=O)NC2C3CC4CC(C3)CC2C4)c1=O` (stereo partly drawn) [II-126, (S)-N1-(1-(2-(2-adamantylamino)-2-oxoethyl)-2-oxo-1,2-dihydropyridin-3-yl)-2-(4-methyl-2-(trifluoromethyl)thiazole-5-carboxamido)-5-oxohexanediamide] gave a logD [1] of under 1, an IC50 [2] of 40 to 400 nM and a Papp [3] of 1 to 10 ×10⁻⁶ cm/s.

Molecule `CNC(=O)C(=O)CC[C@H](NC(=O)c1cnnn1C)C(=O)Nc1cccn(CC(=O)N[C@@H]2C[C@@H]3CC[C@H]2C3)c1=O` [II-157, (S)-N1-(1-(2-((1S,2R,4R)-bicyclo[2.2.1]heptan-2-ylamino)-2-oxoethyl)-2-oxo-1,2-dihydropyridin-3-yl)-N6-methyl-2-(1-methyl-1H-1,2,3-triazole-5-carboxamido)-5-oxohexanediamide] has a logD [1] of under 1, an IC50 [2] of 40 to 400 nM and a Papp [3] of under 1 ×10⁻⁶ cm/s.

For `O=C(Cn1cccc(NC(=O)[C@H](CCC(=O)C(=O)NCc2ccccc2)NC(=O)c2cc3ccccc3o2)c1=O)NC1C2CC3CC(C2)CC1C3` (stereo partly drawn) [II-123, (S)-2-(benzofuran-2-carboxamido)-N6-benzyl-N1-(1-(2-(2-adamantylamino)-2-oxoethyl)-2-oxo-1,2-dihydropyridin-3-yl)-5-oxohexanediamide], the logD [1] was 3 to 5, the IC50 [2] was 400 to 2500 nM and the Papp [3] was 1 to 10 ×10⁻⁶ cm/s.

`CNC(=O)C(=O)CC[C@H](NC(=O)c1ncc(OC)o1)C(=O)Nc1cccn(CCC(=O)NC2C3CC4CC(C3)CC2C4)c1=O` (stereo partly drawn) [II-166, (S)-N1-(1-(3-(2-adamantylamino)-3-oxopropyl)-2-oxo-1,2-dihydropyridin-3-yl)-2-(5-methoxyoxazole-2-carboxamido)-N6-methyl-5-oxohexanediamide] gave a logD [1] of 1 to 3, an IC50 [2] of 400 to 2500 nM and a Papp [3] of 1 to 10 ×10⁻⁶ cm/s.

Molecule `CNC(=O)C(=O)CC[C@H](NC(=O)c1cncc(C(=O)OC)c1)C(=O)Nc1cccn(CC(=O)NC2C3CC4CC(C3)CC2C4)c1=O` (stereo partly drawn) [II-65, (S)-methyl 5-(1-(1-(2-(2-adamantylamino)-2-oxoethyl)-2-oxo-1,2-dihydropyridin-3-ylamino)-6-(methylamino)-1,5,6-trioxohexan-2-ylcarbamoyl)nicotinate] has a logD [1] of 1 to 3, an IC50 [2] of 40 to 400 nM and a Papp [3] of under 1 ×10⁻⁶ cm/s.

With `CNC(=O)C(=O)CC[C@H](NC(=O)c1c(C)noc1C)C(=O)Nc1cccn(CC(=O)NC2C3CCCC2CC3)c1=O` (stereo partly drawn) [II-172, (2S)-N1-(1-(2-(bicyclo[3.2.1]octan-8-ylamino)-2-oxoethyl)-2-oxo-1,2-dihydropyridin-3-yl)-2-(3,5-dimethylisoxazole-4-carboxamido)-N6-methyl-5-oxohexanediamide] the logD [1] was under 1, the IC50 [2] was 40 to 400 nM and the Papp [3] was 1 to 10 ×10⁻⁶ cm/s.

With `CNC(=O)C(=O)CC[C@H](NC(=O)c1cc(Br)co1)C(=O)Nc1cccn(CC(=O)NC2C3CC4CC(C3)CC2C4)c1=O` (stereo partly drawn) [II-47, (S)-2-(4-bromofuran-2-carboxamido)-N1-(1-(2-(2-adamantylamino)-2-oxoethyl)-2-oxo-1,2-dihydropyridin-3-yl)-N6-methyl-5-oxohexanediamide] the logD [1] was 1 to 3, the IC50 [2] was under 40 nM and the Papp [3] was 1 to 10 ×10⁻⁶ cm/s.

Work on `CNC(=O)C(=O)CC[C@H](NC(=O)c1snnc1C(C)C)C(=O)Nc1cccn(CC(=O)NC2C3CC4CC(C3)CC2C4)c1=O` (stereo partly drawn) [II-203, (S)-2-(4-isopropyl-1,2,3-thiadiazole-5-carboxamido)-N1-(1-(2-(2-adamantylamino)-2-oxoethyl)-2-oxo-1,2-dihydropyridin-3-yl)-N6-methyl-5-oxohexanediamide] yielded a logD [1] of 1 to 3, an IC50 [2] of 40 to 400 nM and a Papp [3] of under 1 ×10⁻⁶ cm/s.

For `Cn1nccc1C(=O)N[C@@H](CCC(=O)C(N)=O)C(=O)Nc1cccn(CC(=O)NC2C3CC4CC(C3)CC2C4)c1=O` (stereo partly drawn) [II-144, (S)-N1-(1-(2-(2-adamantylamino)-2-oxoethyl)-2-oxo-1,2-dihydropyridin-3-yl)-2-(1-methyl-1H-pyrazole-5-carboxamido)-5-oxohexanediamide], the logD [1] was under 1, the IC50 [2] was 400 to 2500 nM and the Papp [3] was under 1 ×10⁻⁶ cm/s.

Work on `CNC(=O)C(=O)CC[C@H](NC(=O)c1sc(Br)c(Br)c1OC)C(=O)Nc1cccn(CC(=O)NC2C3CC4CC(C3)CC2C4)c1=O` (stereo partly drawn) [II-46, (S)-2-(4,5-dibromo-3-methoxythiophene-2-carboxamido)-N1-(1-(2-(2-adamantylamino)-2-oxoethyl)-2-oxo-1,2-dihydropyridin-3-yl)-N6-methyl-5-oxohexanediamide] yielded a logD [1] of 3 to 5, an IC50 [2] of 40 to 400 nM and a Papp [3] of under 1 ×10⁻⁶ cm/s.

Work on `CNC(=O)C(=O)CC[C@H](NC(=O)c1sc(-c2ccccc2)nc1C)C(=O)Nc1cccn(CC(=O)NC2C3CC4CC(C3)CC2C4)c1=O` (stereo partly drawn) [II-19, (S)-N1-(1-(2-(2-adamantylamino)-2-oxoethyl)-2-oxo-1,2-dihydropyridin-3-yl)-N6-methyl-2-(4-methyl-2-phenylthiazole-5-carboxamido)-5-oxohexanediamide] yielded a logD [1] of 3 to 5, an IC50 [2] of 40 to 400 nM and a Papp [3] of under 1 ×10⁻⁶ cm/s.

Work on `CNC(=O)C(=O)CC[C@H](NC(=O)c1cc2ccccc2o1)C(=O)Nc1cccn(CC(=O)NC(C)C23CC4CC(CC(C4)C2)C3)c1=O` (stereo partly drawn) [II-88] yielded a logD [1] of 3 to 5, an IC50 [2] of 40 to 400 nM and a Papp [3] of under 1 ×10⁻⁶ cm/s.

Molecule `CNC(=O)C(=O)CC[C@H](NC(=O)c1ccn(C)n1)C(=O)Nc1cccn(CC(=O)NC2C3CC4CC(C3)CC2C4)c1=O` (stereo partly drawn) [II-138, (S)-N1-(1-(2-(2-adamantylamino)-2-oxoethyl)-2-oxo-1,2-dihydropyridin-3-yl)-N6-methyl-2-(1-methyl-1H-pyrazole-3-carboxamido)-5-oxohexanediamide] has a logD [1] of under 1, an IC50 [2] of 400 to 2500 nM and a Papp [3] of under 1 ×10⁻⁶ cm/s.

For `CNC(=O)C(=O)CC[C@H](NC(=O)c1sc(OC)nc1C)C(=O)Nc1cccn(CC(=O)NC2C3CC4CC(C3)CC2C4)c1=O` (stereo partly drawn) [II-18, (S)-N1-(1-(2-(2-adamantylamino)-2-oxoethyl)-2-oxo-1,2-dihydropyridin-3-yl)-2-(2-methoxy-4-methylthiazole-5-carboxamido)-N6-methyl-5-oxohexanediamide], the logD [1] was 1 to 3, the IC50 [2] was 40 to 400 nM and the Papp [3] was under 1 ×10⁻⁶ cm/s.
